Data on 17 compounds can be found in patent US10377791B2, “Therapeutically active estratrienthiazole derivatives as inhibitors of 17 B-hydroxysteroid dehydrogenase, type 1” (FORENDO PHARMA LTD, priority 2013, dated 2019).

Structures can show the parent of a compound that is named as a salt.

The conditions of data set [1]: human, tissue homogenate, 1 h.
Protocol: The in vitro metabolic stability of the compounds of the invention was determined for exemplified compounds using human liver microsome and homogenate incubations. The incubation time points used with or without appropriate cofactors were 0 min and 60 min. Samples were collected at both time points and substrates were detected using LC/PDA/TOF-MS.
Data set [2] concerns the target T1, recombinant human 17β-HSD1 (Homo sapiens, UniProt P14061).
T1 construct: made in house; host or cells: Sd9 (Sf9) insect cells, baculovirus (Bac to Bac Expression System)
T1 sequence (P14061 1-328): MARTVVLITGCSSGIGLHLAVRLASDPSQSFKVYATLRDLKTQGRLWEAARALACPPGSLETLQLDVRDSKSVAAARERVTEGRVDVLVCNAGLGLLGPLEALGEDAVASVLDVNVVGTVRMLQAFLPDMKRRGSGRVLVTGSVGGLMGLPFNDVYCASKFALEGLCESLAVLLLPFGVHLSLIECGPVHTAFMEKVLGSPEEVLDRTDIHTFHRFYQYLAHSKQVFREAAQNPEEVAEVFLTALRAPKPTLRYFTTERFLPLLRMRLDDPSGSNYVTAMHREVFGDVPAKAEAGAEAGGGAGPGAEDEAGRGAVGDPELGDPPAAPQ
The data set can be described thus: Inhibition of recombinant human 17β-HSD1. Type of data set: biochemical. Particulars: inhibitor at 1 μM; 30 nM estrone, 1 mM NADPH, 30 min at RT; read-out: 17β-HDS1 Inhibition % at 1 μM. The procedure, abridged:
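Microsomal enzyme from baculovirus-infected insect cells (1 μg/ml) incubated 30 min at RT in 20 mM KH2PO4 pH 7.4 with 30 nM ³H-estrone and 1 mM NADPH, inhibitor at 1 μM or 0.1 μM, 1% DMSO. TCA-stopped; estrone/estradiol separated by radio-HPLC; % inhibition = 100 − % conversion.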

Data set [3] deals with T2, recombinant human 17β-HSD2 (Homo sapiens, UniProt P37059).
T2 construct: made in house; host or cells: Sd9 (Sf9) insect cells, baculovirus (Bac to Bac Expression System)
T2 sequence (P37059 1-387): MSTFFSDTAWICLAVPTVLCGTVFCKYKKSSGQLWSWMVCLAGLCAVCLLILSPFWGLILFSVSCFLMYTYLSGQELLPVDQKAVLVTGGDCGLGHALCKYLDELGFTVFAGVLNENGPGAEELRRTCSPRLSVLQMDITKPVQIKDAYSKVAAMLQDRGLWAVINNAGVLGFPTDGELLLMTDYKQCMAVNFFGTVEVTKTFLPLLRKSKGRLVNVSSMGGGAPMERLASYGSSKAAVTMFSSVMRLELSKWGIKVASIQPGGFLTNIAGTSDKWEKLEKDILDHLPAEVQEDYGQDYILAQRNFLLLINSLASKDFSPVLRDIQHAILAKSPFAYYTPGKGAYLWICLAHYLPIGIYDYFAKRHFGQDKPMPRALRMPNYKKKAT
The data set can be described thus: Inhibition of recombinant human 17β-HSD2. Type of data set: biochemical. Particulars: inhibitor at 1 μM; 50 nM estradiol, 1 mM NADH, 30 min at RT; read-out: 17β-HSD2 Inhibition % at 1 μM. The procedure, abridged:
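Membrane extract of baculovirus-expressed enzyme in Sf9 cells (4 μg/ml) incubated in 20 mM KH2PO4 pH 8.5 with 50 nM estradiol (³H-tracer) and 1 mM NADH, 30 min at RT, 1% DMSO, inhibitor at 1 μM or 0.1 μM. TCA-stopped; estradiol-to-estrone conversion by radio-HPLC; % inhibition = 100 − % conversion.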

As usually defined, the inhibition is the drop in the measured response relative to a control, in per cent. Consider `Cc1cnc(NC(=O)CC[C@@H]2CC(=O)[C@@]3(C)CCC4c5ccc(OS(C)(=O)=O)cc5CCC4C23)s1` (stereo partly drawn) [Compound 2, Methanesulphonic acid (13S,15R)-13-methyl-15-[2-(5-methylthiazol-2-ylcarbamoyl)-ethyl]-17-oxo-7,8,9,11,12,13,14,15,16,17-decahydro-6H-cyclopenta[a]phenanthren-3-yl ester], for which the “In vitro metabolic stability, % remaining after 60 min” value in data set [1] was found to be 25%. The inhibition at 1 µM in data set [2] is 95%; in data set [3] it was 11%.
Consider `Cc1cnc(NC(=O)CC[C@@H]2CC(=O)[C@@]3(C)CCC4c5ccc(OC(=O)C(C)(C)C)cc5CCC4C23)s1` (stereo partly drawn) [Compound 3, 2,2-Dimethyl-propionic acid (13S,15R)-13-methyl-15-[2-(5-methylthiazol-2-ylcarbamoyl)-ethyl]-17-oxo-7,8,9,11,12,13,14,15,16,17-decahydro-6H-cyclopenta[a]phenanthren-3-yl ester], for which the “In vitro metabolic stability, % remaining after 60 min” value in data set [1] amounted to 30%.
As to `Cc1cnc(NC(=O)CC[C@@H]2CC(=O)[C@@]3(C)CCC4c5ccc(OS(=O)(=O)O)cc5CCC4C23)s1` (stereo partly drawn) [Compound 5, Sulphuric acid mono-{(13S,15R)-13-methyl-15-[2-(5-methylthiazol-2-ylcarbamoyl)-ethyl]-17-oxo-7,8,9,11,12,13,14,15,16,17-decahydro-6H-cyclopenta[a]phenanthren-3-yl} ester triethylamine salt], the “In vitro metabolic stability, % remaining after 60 min” value in data set [1] was 50%. For the same compound, the inhibition at 1 µM in data set [2] is 92%; in data set [3], 4%.
For `Cc1cnc(NC(=O)CC[C@@H]2CC(=O)[C@@]3(C)CCC4c5ccc(OCc6ccccc6)cc5CCC4C23)s1` (stereo partly drawn) [Compound 30, 3-((13S,15R)-3-Benzyloxy-13-methyl-17-oxo-7,8,9,11,12,13,14,15,16,17-decahydro-6H-cyclopenta[a]phenanthren-15-yl)-N-(5-methylthiazol-2-yl)propanamide], the “In vitro metabolic stability, % remaining after 60 min” value in data set [1] worked out at 74%.
As for `Cc1cnc(NC(=O)CC[C@@H]2CC(=O)[C@@]3(C)CCC4c5cc6ncoc6cc5CCC4C23)s1` (stereo partly drawn) [Compound 47, 3-((3R,12aS)-12a-methyl-1-oxo-2,3,3a,3b,4,5,10b,11,12,12a-decahydro-1H-cyclopenta[7,8]phenanthro[3,2-d]oxazol-3-yl)-N-(5-methylthiazol-2-yl)propanamide], the “In vitro metabolic stability, % remaining after 60 min” value in data set [1] turned out to be 48%. For the same compound, the inhibition at 1 µM in data set [2] amounted to 87%; in data set [3], 2%.
`Cc1cnc(NC(=O)CC[C@@H]2CC(=O)[C@@]3(C)CCC4c5cc(N)ccc5CCC4C23)s1` (stereo partly drawn) [Compound 87, 3-((13S,15R)-2-amino-13-methyl-17-oxo-7,8,9,11,12,13,14,15,16,17-decahydro-6H-cyclopenta[a]phenanthren-15-yl)-N-(5-methylthiazol-2-yl)propanamide]: the inhibition at 1 µM in data set [2] worked out at 87%; in data set [3] it was 2%.
Regarding `Cc1cnc(NC(=O)CC[C@@H]2CC(=O)[C@@]3(C)CCC4c5cc(O)ccc5CCC4C23)s1` (stereo partly drawn) [Compound 88, 3-((13S,15R)-2-hydroxy-13-methyl-17-oxo-7,8,9,11,12,13,14,15,16,17-decahydro-6H-cyclopenta[a]phenanthren-15-yl)-N-(5-methylthiazol-2-yl)propanamide], the inhibition at 1 µM turned out to be 93% in data set [2] and 1% in data set [3].
Taken in the same sequence, the figures for `Cc1cnc(NC(=O)CC[C@@H]2CC(=O)[C@@]3(C)CCC4c5cccc(N)c5CCC4C23)s1` (stereo partly drawn) [Compound 89, 3-((13S,15R)-4-amino-13-methyl-17-oxo-7,8,9,11,12,13,14,15,16,17-decahydro-6H-cyclopenta[a]phenanthren-15-yl)-N-(5-methylthiazol-2-yl)propanamide] were 71% and 0%.
On the same counts, the results for `Cc1cnc(NC(=O)CC[C@@H]2CC(=O)[C@@]3(C)CCC4c5cccc(O)c5CCC4C23)s1` (stereo partly drawn) [Compound 90, 3-((13S,15R)-4-hydroxy-13-methyl-17-oxo-7,8,9,11,12,13,14,15,16,17-decahydro-6H-cyclopenta[a]phenanthren-15-yl)-N-(5-methylthiazol-2-yl)propanamide] are 94% and 0%.
Consider `Cc1cnc(NC(=O)CC[C@@H]2CC(=O)[C@@]3(C)CCC4c5cc(C#N)c(O)cc5CCC4C23)s1` (stereo partly drawn) [Compound 91, 3-((13S,15R)-2-cyano-3-hydroxy-13-methyl-17-oxo-7,8,9,11,12,13,14,15,16,17-decahydro-6H-cyclopenta[a]phenanthren-15-yl)-N-(5-methylthiazol-2-yl)propanamide], for which the results for the inhibition at 1 µM in data set [2] and in data set [3] were 97% and 1%, respectively.
Take `Cc1cnc(NC(=O)CC[C@@H]2CC(=O)[C@@]3(C)CCC4c5ccc(O)c(C#N)c5CCC4C23)s1` (stereo partly drawn) [Compound 92, 3-((13S,15R)-4-cyano-3-hydroxy-13-methyl-17-oxo-7,8,9,11,12,13,14,15,16,17-decahydro-6H-cyclopenta[a]phenanthren-15-yl)-N-(5-methylthiazol-2-yl)propanamide]: the values for the inhibition at 1 µM in data set [2] and in data set [3] were 97% and 0%, respectively.
With `COc1ccc2c(c1)CCC1C2CC[C@]2(C)C(=O)C(O)[C@@H](CCC(=O)Nc3ncc(C)s3)C12` (stereo partly drawn) [Compound 93, 3-((13S,15S)-16-hydroxy-3-methoxy-13-methyl-17-oxo-7,8,9,11,12,13,14,15,16,17-decahydro-6H-cyclopenta[a]phenanthren-15-yl)-N-(5-methylthiazol-2-yl)propanamide], the values for the inhibition at 1 µM in data set [2] and in data set [3] were 54% and 3%, respectively.
Consider `Cc1cnc(NC(=O)CC[C@@H]2CC(=O)[C@@]3(C)CCC4c5c([N+](=O)[O-])ccc(O)c5CCC4C23)s1` (stereo partly drawn) [Compound 94, 3-((13S,15R)-4-hydroxy-13-methyl-1-nitro-17-oxo-7,8,9,11,12,13,14,15,16,17-decahydro-6H-cyclopenta[a]phenanthren-15-yl)-N-(5-methylthiazol-2-yl)propanamide], for which the inhibition at 1 µM turned out to be 95% in data set [2] and 4% in data set [3].
On the same counts, the results for `Cc1cnc(NC(=O)CC[C@@H]2/C(=C/O)C(=O)[C@@]3(C)CCC4c5ccc(O)cc5CCC4C23)s1` (stereo partly drawn) [Compound 95, 3-{(13S,15S)-3-Hydroxy-16-[1-hydroxy-methylidene]-13-methyl-17-oxo-7,8,9,11,12,13,14,15,16,17-decahydro-6H-cyclopenta[a]phenanthren-15-yl}-N-(5-methylthiazol-2-yl)propanamide] are 97% and 3%.
Taken in the same sequence, the figures for `COc1ccc2c(c1)CCC1C2CC[C@]2(C)C(=O)/C(=C/O)[C@@H](CCC(=O)Nc3ncc(C)s3)C12` (stereo partly drawn) [Compound 97, 3-{(13S,15S)-16-[1-Hydroxy-methylidene]-3-methoxy-13-methyl-17-oxo-7,8,9,11,12,13,14,15,16,17-decahydro-6H-cyclopenta[a]phenanthren-15-yl}-N-(5-methylthiazol-2-yl)propanamide] were 92% and 11%.
Consider `Cc1cnc(NC(=O)CC[C@@H]2CC(=O)[C@@]3(C)CCC4c5cccc(C(C)(C)C)c5CCC4C23)s1` (stereo partly drawn) [Compound 105, 3-((13S,15R)-4-(tert-butyl)-13-methyl-17-oxo-7,8,9,11,12,13,14,15,16,17-decahydro-6H-cyclopenta[a]phenanthren-15-yl)-N-(5-methylthiazol-2-yl)propanamide], for which the values for the inhibition at 1 µM in data set [2] and in data set [3] were 90% and 16%, respectively.
On the same counts, the results for `COc1ccc2c(c1)CCC1C2CC[C@]2(C)C(=O)C[C@@H](CCC(=O)Nc3ncc(C)s3)C12` (stereo partly drawn) [Compound X, 3-((13S,15R)-3-Methoxy-13-methyl-17-oxo-7,8,9,11,12,13,14,15,16,17-decahydro-6H-cyclopenta[a]phenanthren-15-yl)-N-(5-methylthiazol-2-yl)propanamide, reference compound] are 96% and 3%.
